Entries after “also recorded” stand apart in the source; their conditions may differ.

Series [1] has as its system ATG4B-mediated basal autophagy in F508del-CFTR-expressing CFBE41o– cells. The series is described as follows: Labeling of autophagic vacuoles with monodansylcadaverine (MDC). The format is cell-based, human. As to conditions: test compounds 5 μM 24 h; torin-1 20 nM and SAR-405 2 μM in the last 3 h. The text has this: To further support our hypothesis that CFTR rescue following treatment with test compounds was indeed due to RNF5 inhibition, we considered additional biological processes known to be regulated by RNF5 ligase activity. To this aim, we focused our attention on ATG4B, a known regulator of basal autophagy, whose degradation is mediated by RNF5 activity.[54]In vivo ubiquitination experiments previously confirmed that inh-2 inhibits ATG4B degradation, thus increasing the basal level of autophagy.[40] […] We thus evaluated the effect of inh-2 analogues on induction of the autophagy pathway. To this aim, we monitored the formation of autophagic vacuoles in F508del-CFTR-expressing CFBE41o^– cells (Figure 8) by using the autolysosome marker monodansylcadaverine (MDC). MDC accumulates inside autophagosomes. After fusion of autophagosomes with lysosomes, MDC fluorescence increases due to the acidic environment.[55] Therefore, F508del-CFTR-expressing CFBE41o^– cells were treated for 24 h with test compounds (5 μM), VX-809 (1 μM), or DMSO alone (vehicle). In the last 3 h of incubation, we added torin-1 (20 nM), a known autophagy inducer, and SAR-405 (2 μM), a potent inhibitor of the autophagic pathway. The cells were then loaded with MDC and evaluated by high-content confocal imaging to detect signal spots (corresponding to autophagic vacuoles) in each cell.
CFBE41o^– cells stably expressing F508del-CFTR and the HS-YFP were plated (50,000 cells/well) on good-quality clear-bottom 96-well black microplates suitable for high-content imaging. After 24 h, cells were treated with test compounds or DMSO (as the negative control). […] After 24 h, cells were incubated with 50 μM MDC (Sigma-Aldrich) in PBS at 37 °C for 10 min.[62] After incubation, cells were washed three times with PBS and immediately analyzed. High-content imaging and data analysis were performed using the Opera Phenix (PerkinElmer) high-content screening system. Wells were imaged in confocal mode using a 40× water-immersion objective. The MDC signal was laser-excited at 405 nm, and the emission wavelengths were collected between 435 and 550 nm. Data analysis of MDC spot number was performed using the Harmony software (ver 4.5) of the Opera Phenix high-content system. Data are expressed as means ± SEM, n = 3 independent experiments. Statistical significance was tested by parametric ANOVA followed by the Dunnet multiple comparisons test (all groups against the control group).

A further series concerns CFBE41o– cells. The series can be described thus: Apoptosis assay (Hoechst 33342 / propidium iodide, high-content imaging). The format is cell-based, human. The method, then: We performed a preliminary evaluation of the effect of chronic treatment with selected analogues on the proliferation and apoptosis of CFBE41o^– cells (Figure 7). Indeed, RNF5 can modulate cell motility and proliferation by regulating paxillin ubiquitylation and thus its degradation.[53] For the proliferation assay, CFBE41o^– cells stably co-expressing F508del-CFTR and the HS-YFP were treated with test compounds (5 μM), VX-809 (1 μM), or vehicle alone (DMSO) for 48 h. Cell proliferation was then monitored by measuring the area covered by the cells based on the YFP signal. For the apoptosis assay, 24 h after plating, CFBE41o^– cells stably expressing F508del-CFTR were treated with test compounds (5, 20, and 100 μM), VX-809 (1 μM), MG132 (50 μM), or vehicle alone (DMSO) for 24 h. Cell nuclei were then counterstained with Hoechst 33342 and propidium iodide to visualize the total and apoptotic cell count, respectively, and imaged by using an Opera Phenix high-content screening system.
CFBE41o^– cells stably expressing F508del-CFTR and the HS-YFP were plated at a low density (5000 cell/well) on 96-well plates suitable for high-content imaging. […] Cell proliferation was monitored (by exploiting the YFP signal to determine the area covered by cells) for 48 h using the Opera Phenix (PerkinElmer) high-content screening system. […] Data are expressed as means ± SEM, n = 6. […]

Take `COc1cccc(Cn2c(C)ns/c2=N\C(=N\c2ccccc2)c2ccccc2)c1` [Compound 16, (E)-N-((Z)-4-(3-Methoxybenzyl)-3-methyl-1,2,4-thiadiazol-5(4H)-ylidene)-N′-phenylbenzimidamide]: the “number of autophagic vacuoles (MDC signal spots)” value in series [1] is on record as “significantly increased; also recorded: strong activation of basal autophagy”. Also, in the series on CFBE41o– cells, the “effect on cell proliferation and apoptosis (tolerability)” value is “good tolerability and no toxic side effects”.
Regarding `Cc1ns/c(=N\C(=N\c2ccccc2)c2ccccc2)n1Cc1ccccc1` [inh-2, reference compound], the “number of autophagic vacuoles (MDC signal spots)” value in series [1] is on record as “significantly increased”.

The values above are taken from PMC10388311, “Innovative Strategy toward Mutant CFTR Rescue in Cystic Fibrosis: Design and Synthesis of Thiadiazole Inhibitors of the E3 Ligase RNF5” (Journal of Medicinal Chemistry, 2023).
